Test results reported in PubChem BioAssay AID342 (DTP/NCI, 2004).
Values joined by “and” are separate entries in the source; they are usually repeats but may differ in a detail not shown here. Equal entries are not always repeated.

Tested on: Swiss mice, Sarcoma 180 sc, mean tumor weight T/C
Assay: NCI In Vivo Anticancer Drug Screen. Data for tumor model Sarcoma 180 (subcutaneous) in Swiss mice
Details: endpoint: mean tumor weight, higher = larger tumour
Method in brief: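 Mice bearing transplanted tumors were treated with compound, and survival or tumor size was measured. Values are expressed as the treated-group measurement (T) divided by the vehicle-treated control measurement (C).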

O=C1c2cc(Cl)ccc2-c2c(Cl)cc(Cl)cc21
T/C (dose: 25.0 mg/kg/injection, schedule: Q01DX007 (ip), vehicle: methylcellulose (MC)): 100 % of control
T/C (dose: 43.0 mg/kg/injection, schedule: Q01DX007 (ip), vehicle: carboxymethylcellulose (CMC)): 76 % of control
T/C (dose: 66.0 mg/kg/injection, schedule: Q01DX007 (ip), vehicle: carboxymethylcellulose (CMC)): 65 % of control
T/C (dose: 98.0 mg/kg/injection, schedule: Q01DX007 (ip), vehicle: carboxymethylcellulose (CMC)): 44 % of control and 50 % of control
T/C (dose: 147.0 mg/kg/injection, schedule: Q01DX007 (ip), vehicle: carboxymethylcellulose (CMC)): 36 % of control
T/C (dose: 149.0 mg/kg/injection, schedule: Q01DX007 (ip), vehicle: carboxymethylcellulose (CMC)): 59 % of control
T/C (dose: 222.0 mg/kg/injection, schedule: Q01DX007 (ip), vehicle: carboxymethylcellulose (CMC)): 30 % of control and 44 % of control
T/C (dose: 222.0 mg/kg/injection, schedule: Q01DX007 (ip), vehicle: other): 48 % of control
T/C (dose: 333.0 mg/kg/injection, schedule: Q01DX007 (ip), vehicle: carboxymethylcellulose (CMC)): 25 % of control and 32 % of control
T/C (dose: 333.0 mg/kg/injection, schedule: Q01DX007 (ip), vehicle: other): 39 % of control
T/C (dose: 500.0 mg/kg/injection, schedule: Q01DX007 (ip), vehicle: carboxymethylcellulose (CMC)): 22 % of control
T/C (dose: 750.0 mg/kg/injection, schedule: Q01DX007 (ip), vehicle: other): 27 % of control

CC(=O)[C@H]1CC[C@H]2[C@@H]3C[C@H](F)C4=CC(=O)CC[C@]4(C)[C@@]3(F)[C@@H](O)C[C@]12C
T/C (dose: 25.0 mg/kg/injection, schedule: Q01DX007 (sc), vehicle: steriod suspending solution): 65 % of control
T/C (dose: 37.0 mg/kg/injection, schedule: Q01DX007 (sc), vehicle: steriod suspending solution): 49 % of control
T/C (dose: 282.0 mg/kg/injection, schedule: Q01DX007 (sc), vehicle: steriod suspending solution): 41 % of control
T/C (dose: 423.0 mg/kg/injection, schedule: Q01DX007 (sc), vehicle: steriod suspending solution): 36 % of control

CC1(C)N=C(N)N=C(N)N1c1cccc(Cl)c1
T/C (dose: 3.97 mg/kg/injection, schedule: Q01DX007 (ip), vehicle: carboxymethylcellulose (CMC)): 83 % of control
T/C (dose: 6.95 mg/kg/injection, schedule: Q01DX007 (ip), vehicle: carboxymethylcellulose (CMC)): 85 % of control
T/C (dose: 13.9 mg/kg/injection, schedule: Q01DX007 (ip), vehicle: carboxymethylcellulose (CMC)): 68 % of control
T/C (dose: 27.8 mg/kg/injection, schedule: Q01DX007 (ip), vehicle: carboxymethylcellulose (CMC)): 74 % of control

CCCCN(CCCC)C(=O)c1[nH]cnc1N
T/C (dose: 100.0 mg/kg/injection, schedule: Q01DX007 (ip), vehicle: carboxymethylcellulose (CMC)): 55 % of control
T/C (dose: 200.0 mg/kg/injection, schedule: Q01DX007 (ip), vehicle: carboxymethylcellulose (CMC)): 58 % of control
T/C (dose: 250.0 mg/kg/injection, schedule: Q01DX007 (ip), vehicle: carboxymethylcellulose (CMC)): 87 % of control
T/C (dose: 375.0 mg/kg/injection, schedule: Q01DX007 (ip), vehicle: carboxymethylcellulose (CMC)): 57 % of control

CC(=O)OC(C)(C)/C=C/C(=O)[C@](C)(O)[C@H]1[C@H](O)C[C@@]2(C)[C@@H]3CC=C4[C@@H](C=C(O)C(=O)C4(C)C)[C@]3(C)C(=O)C[C@]12C
T/C (dose: 0.4 mg/kg/injection, schedule: Q01DX007 (ip), vehicle: carboxymethylcellulose (CMC)): 54 % of control
T/C (dose: 0.8 mg/kg/injection, schedule: Q01DX007 (ip), vehicle: carboxymethylcellulose (CMC)): 29 % of control
T/C (dose: 1.6 mg/kg/injection, schedule: Q01DX007 (ip), vehicle: carboxymethylcellulose (CMC)): 94 % of control
T/C (dose: 3.2 mg/kg/injection, schedule: Q01DX007 (ip), vehicle: carboxymethylcellulose (CMC)): 88 % of control

Cc1ccc2[nH]c(C)c(CCN)c2c1
T/C (dose: 44.0 mg/kg/injection, schedule: Q01DX007 (ip), vehicle: water): 95 % of control
T/C (dose: 66.0 mg/kg/injection, schedule: Q01DX007 (ip), vehicle: water): 119 % of control
T/C (dose: 100.0 mg/kg/injection, schedule: Q01DX007 (ip), vehicle: water): 97 % of control

CC(=O)Nc1c(Cl)cc2c(c1Cl)Cc1cc([N+](=O)[O-])ccc1-2
T/C (dose: 222.0 mg/kg/injection, schedule: Q01DX007 (ip), vehicle: saline): 59 % of control

CCOC(=O)c1c(C#N)c(Cl)nc(C)c1[N+](=O)[O-]
T/C (dose: 3.0 mg/kg/injection, schedule: Q#A X014 (ip), vehicle: carboxymethylcellulose (CMC)): 64 % of control
T/C (dose: 6.0 mg/kg/injection, schedule: Q#A X014 (ip), vehicle: carboxymethylcellulose (CMC)): 70 % of control
